The values below come from PubChem BioAssay (NCI).

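A five-concentration, 48-hour dose response in 96-well plates underlies each endpoint, interpolated linearly between surrounding concentrations. TGI marks complete inhibition of growth.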 Where a SMILES comes first, the peptide text is derived from it. [ ]: non-standard residue; d: D form. pGlu = O=C1CC[CH](C(=O)O)N1 Where only a bound is given, the exact number is not on record here.

Among the test systems are HL-60(TB) leukemia; RXF 393 renal; MDA-MB-435; U251 CNS; NCI/ADR-RES ovarian; EKVX NSCLC; OVCAR-4 ovarian; BT-549 breast; COLO 205 colon; 786-0 renal; CCRF-CEM leukemia; UACC-62 melanoma; A498 renal.
Common to all, as to assay: DTP human tumour cell line panel, 48 h

What is called TGI is the concentration giving total growth inhibition. Read a high TGI as lower sensitivity of the cells. Regarding `NS(=O)(=O)c1ccc(NC(=O)N/N=C/c2ccccc2[N+](=O)[O-])cc1`, the TGI is greater than 100 µM with HL-60(TB) leukemia; greater than 100 µM in the assay on RXF 393 renal; 42.7 µM with MDA-MB-435; greater than 100 µM in the assay on U251 CNS; greater than 100 µM in the assay with NCI/ADR-RES ovarian; greater than 100 µM in the assay with EKVX NSCLC. The TGI in the assay with OVCAR-4 ovarian, with BT-549 breast, in the assay with COLO 205 colon, in the assay with 786-0 renal, with CCRF-CEM leukemia and in the assay with UACC-62 melanoma was greater than 100 µM in each case. This compound also displayed a TGI with A498 renal greater than 100 µM.
`COC(=O)[C@H](Cc1ccccc1)NC(=O)c1ccc(CNC(=O)/C=C/c2ccc(OCc3ccccc3)cc2)cc1`: the TGI in the assay on HL-60(TB) leukemia was 11.8 µM; in the assay on RXF 393 renal, 18.7 µM; with MDA-MB-435, 12.8 µM; in the assay on U251 CNS, greater than 75.4 µM; with NCI/ADR-RES ovarian, greater than 78 µM; in the assay on EKVX NSCLC, 87.6 µM. Also, the TGI with OVCAR-4 ovarian is 25.2 µM; in the assay on BT-549 breast, 57.9 µM; in the assay on COLO 205 colon, greater than 100 µM; in the assay on 786-0 renal, 19.1 µM; with CCRF-CEM leukemia, greater than 100 µM; with UACC-62 melanoma, 18.6 µM. This compound also showed a TGI in the assay on A498 renal of 21.4 µM.
Consider `O=S(=O)(O)c1ccc(N=Nc2ccccc2)cc1`, for which the TGI in the assay with HL-60(TB) leukemia, with RXF 393 renal, in the assay on MDA-MB-435, in the assay with U251 CNS, in the assay on NCI/ADR-RES ovarian and in the assay with EKVX NSCLC was greater than 100 µM in each case. Also, the TGI with OVCAR-4 ovarian, with BT-549 breast, in the assay with COLO 205 colon, in the assay on 786-0 renal, in the assay with CCRF-CEM leukemia and with UACC-62 melanoma was greater than 100 µM each time. Moreover, in the assay with A498 renal, the TGI is greater than 100 µM.
Turning to `CN(O)C(=O)CCC(NC(=O)CCC(N)C(=O)O)C(=O)NCC(=O)O` (stereo not drawn), the TGI in the assay on HL-60(TB) leukemia, in the assay on RXF 393 renal, in the assay on MDA-MB-435, with U251 CNS, with NCI/ADR-RES ovarian and in the assay with EKVX NSCLC was greater than 100 µM throughout. The TGI in the assay on OVCAR-4 ovarian, with BT-549 breast, in the assay with COLO 205 colon, with 786-0 renal, in the assay with CCRF-CEM leukemia and with UACC-62 melanoma was greater than 100 µM throughout. The TGI with A498 renal was greater than 100 µM.
For the compound `S=C(NCc1ccccc1)Nc1sc(=NCc2ccccc2)nc2sc3c(c12)CCN(N1CCc2c(sc4nc(=NCc5ccccc5)sc(NC(=S)NCc5ccccc5)c24)C1)C3`, the TGI was 42.4 µM with HL-60(TB) leukemia; greater than 65.9 µM with RXF 393 renal; greater than 100 µM in the assay with MDA-MB-435; greater than 47.5 µM in the assay on U251 CNS; greater than 100 µM in the assay with NCI/ADR-RES ovarian; greater than 64.1 µM with EKVX NSCLC. Further, the TGI in the assay with OVCAR-4 ovarian was greater than 91 µM; in the assay with BT-549 breast it was greater than 85.6 µM; in the assay on COLO 205 colon it was greater than 100 µM; with 786-0 renal, greater than 40.9 µM; in the assay on CCRF-CEM leukemia, greater than 70.2 µM; with UACC-62 melanoma, greater than 75.2 µM. Besides, the TGI with A498 renal was greater than 67.6 µM.
For `C=C1C2CCC3C4(C)CCCC(C)(C(=O)O)C4CCC3(C2)C1OC(=O)/C(C)=C/C` (stereo not drawn), the TGI with HL-60(TB) leukemia was 56.7 µM; in the assay on RXF 393 renal, 34.2 µM; in the assay with MDA-MB-435, greater than 100 µM; in the assay on U251 CNS, greater than 100 µM; in the assay on NCI/ADR-RES ovarian it was 53.6 µM; with EKVX NSCLC, greater than 100 µM. In addition, the TGI was greater than 100 µM with OVCAR-4 ovarian; greater than 100 µM with BT-549 breast; 82.1 µM in the assay on COLO 205 colon; greater than 100 µM with 786-0 renal; greater than 100 µM with CCRF-CEM leukemia; 62.2 µM in the assay on UACC-62 melanoma. Besides, the TGI in the assay on A498 renal was 60.4 µM.
As for `C#CC1(O)CCC2[C@@H]3CCc4cc(Oc5nc(F)nc(-c6c(C)c(C(=O)OCC)n7ccccc67)n5)ccc4C3CC[C@@]21C` (stereo partly drawn), the TGI in the assay with HL-60(TB) leukemia, with RXF 393 renal, with MDA-MB-435, in the assay on U251 CNS, in the assay with NCI/ADR-RES ovarian and in the assay on EKVX NSCLC was greater than 100 µM throughout. The TGI in the assay with OVCAR-4 ovarian, in the assay with BT-549 breast, in the assay with COLO 205 colon, in the assay with 786-0 renal, in the assay on CCRF-CEM leukemia and in the assay with UACC-62 melanoma was greater than 100 µM each time. This compound also gave a TGI in the assay with A498 renal greater than 100 µM.
Turning to `COc1ccc(/C=N\N(C)Cc2cccc3ccsc23)cc1`, the TGI in the assay on HL-60(TB) leukemia, in the assay with RXF 393 renal, in the assay with MDA-MB-435, with U251 CNS, in the assay on NCI/ADR-RES ovarian and with EKVX NSCLC was greater than 100 µM each time. Besides, the TGI with OVCAR-4 ovarian, in the assay on BT-549 breast, in the assay on COLO 205 colon, in the assay on 786-0 renal, with CCRF-CEM leukemia and in the assay on UACC-62 melanoma was greater than 100 µM throughout. The compound further registered a TGI in the assay on A498 renal greater than 100 µM.
For the compound `Cc1nc(-c2ccccc2)cn2c1nc1ccccc12`, the TGI with HL-60(TB) leukemia was greater than 100 µM; in the assay on RXF 393 renal, 55.5 µM; in the assay on MDA-MB-435, 36.9 µM; in the assay with U251 CNS, 36.3 µM; in the assay with NCI/ADR-RES ovarian, 55.7 µM; in the assay with EKVX NSCLC, greater than 59.6 µM. For the same compound, the TGI is 65.4 µM in the assay on OVCAR-4 ovarian; 38.9 µM in the assay with BT-549 breast; greater than 100 µM in the assay on COLO 205 colon; 50.9 µM with 786-0 renal; greater than 100 µM in the assay on CCRF-CEM leukemia; 31.7 µM in the assay with UACC-62 melanoma. The compound also gave a TGI in the assay on A498 renal of 23.5 µM.
For `C#C[C@]1(O)CC[C@H]2[C@@H]3CCC4=C/C(=N\OCCN5CCCCC5)CC[C@]4(C)[C@H]3CC[C@@]21C`, the TGI with HL-60(TB) leukemia came out at 6.23 µM; in the assay on RXF 393 renal it was 11.3 µM; with MDA-MB-435, 8.91 µM; in the assay with U251 CNS it was 33.6 µM; in the assay with NCI/ADR-RES ovarian, 15.4 µM; with EKVX NSCLC, 19.9 µM. Further, the TGI is 40 µM in the assay with OVCAR-4 ovarian; 17.6 µM in the assay with BT-549 breast; 7.43 µM in the assay with COLO 205 colon; 14.9 µM in the assay on 786-0 renal; greater than 53.8 µM in the assay on CCRF-CEM leukemia; 10.7 µM with UACC-62 melanoma. The compound further showed a TGI in the assay with A498 renal of 20.5 µM.
Regarding `CC(C)C1CSC2N1C(=O)C2(OCc1ccccc1)C1CC1` (stereo not drawn), the TGI in the assay on HL-60(TB) leukemia, with RXF 393 renal, with MDA-MB-435, in the assay with U251 CNS, in the assay on NCI/ADR-RES ovarian and with EKVX NSCLC was greater than 100 µM each time. For the same compound, the TGI in the assay with OVCAR-4 ovarian, with BT-549 breast, in the assay on COLO 205 colon, in the assay on 786-0 renal, in the assay with CCRF-CEM leukemia and in the assay with UACC-62 melanoma was greater than 100 µM in each case. In the assay on A498 renal, this compound returned a TGI greater than 100 µM.
As to `O=C(O)c1nc2cc(Cl)ccc2[nH]c1=O`, the TGI with HL-60(TB) leukemia, in the assay on RXF 393 renal, in the assay with MDA-MB-435, with U251 CNS, in the assay with NCI/ADR-RES ovarian and in the assay with EKVX NSCLC was greater than 100 µM throughout. Further, the TGI in the assay with OVCAR-4 ovarian, with BT-549 breast, in the assay on COLO 205 colon, in the assay on 786-0 renal, in the assay with CCRF-CEM leukemia and with UACC-62 melanoma was greater than 100 µM in each case. In addition, the TGI in the assay with A498 renal was greater than 100 µM.
On to `Cn1c(-c2ccco2)ccc1-c1ccc(C=O)o1`, for which the TGI was 52.2 µM in the assay on HL-60(TB) leukemia; greater than 100 µM in the assay on RXF 393 renal; greater than 100 µM in the assay with MDA-MB-435; greater than 100 µM in the assay with U251 CNS; greater than 100 µM with NCI/ADR-RES ovarian; greater than 100 µM in the assay on EKVX NSCLC. For the same compound, the TGI with OVCAR-4 ovarian, with BT-549 breast, with COLO 205 colon, in the assay on 786-0 renal, in the assay on CCRF-CEM leukemia and in the assay with UACC-62 melanoma was greater than 100 µM in each case. The compound further showed a TGI in the assay on A498 renal greater than 100 µM.
On to `CC(NC(=O)C1CCC(=O)N1)C(=O)N1CCCC1C(N)=O` (stereo not drawn) ([pGlu]-Ala-Pro-NH2; configuration not given here), for which the TGI in the assay on HL-60(TB) leukemia, in the assay on RXF 393 renal, with MDA-MB-435, in the assay with U251 CNS, in the assay with NCI/ADR-RES ovarian and in the assay on EKVX NSCLC was greater than 100 µM each time. The TGI in the assay with OVCAR-4 ovarian, in the assay on BT-549 breast, in the assay with COLO 205 colon, in the assay on 786-0 renal, with CCRF-CEM leukemia and with UACC-62 melanoma was greater than 100 µM in each case. In the assay on A498 renal, this compound had a TGI greater than 100 µM.
Consider `CCOC(=O)c1c(O)cn2c1[nH]c1cccc3cccc2c31`, for which the TGI with HL-60(TB) leukemia, in the assay on RXF 393 renal, in the assay with MDA-MB-435, in the assay on U251 CNS, in the assay with NCI/ADR-RES ovarian and with EKVX NSCLC was greater than 100 µM in each case. Also, the TGI with OVCAR-4 ovarian, with BT-549 breast, in the assay on COLO 205 colon, in the assay on 786-0 renal, in the assay on CCRF-CEM leukemia and in the assay on UACC-62 melanoma was greater than 100 µM each time. The compound further displayed a TGI with A498 renal greater than 100 µM.
Regarding `ClCc1nc2ccccc2[nH]1`, the TGI with HL-60(TB) leukemia, in the assay on RXF 393 renal, in the assay with MDA-MB-435, with U251 CNS, in the assay on NCI/ADR-RES ovarian and in the assay with EKVX NSCLC was greater than 100 µM each time. The TGI with OVCAR-4 ovarian, in the assay on BT-549 breast, with COLO 205 colon, in the assay on 786-0 renal, in the assay with CCRF-CEM leukemia and in the assay on UACC-62 melanoma was greater than 100 µM in each case. For the same compound, the TGI with A498 renal is greater than 100 µM.
